Measured values published in paper PMC10969504 (2024).

Tested on: ENR-Apt 6 (DNA, aptamer) GCGGCTGCTTACGGATAGAAGGCGGATGGAGAAATGAACCGGGGTGGTCCGTTGTCCATCCGTAAAGCCCAAGTC
Experiment: graphene oxide fluorescence quenching/recovery, aptamer titrated
Details: aptamer 25-200 nM in ultrapure water; 20 μg/mL GO; 250 μM ENR solution added (1:1:1 v/v); apparent

## CCN1CCN(c2cc3c(cc2F)c(=O)c(C(=O)O)cn3C2CC2)CC1
  Kd: 35.08 nM
